# Patent US20190352341A1, “MODIFIED PEPTIDES AND THEIR USE FOR TREATING SYSTEMIC LUPUS ERYTHEMATOSUS” (IMMUPHARMA FRANCE SA, priority 2018, published 2019)
# Where “and” joins values, the source holds several entries; their conditions need not be identical. Identical values can stand only once. Numbered stars: 1 amine (or outer) side, 2 acyl side, 3 side chain; on linkers, the order of the positions; unused ones are H or OH. Square brackets hold non-standard residues; d marks the D form. Peptide text beside a SMILES is read from it. ξ: configuration not given here. X1 = CSCC[C@H](NC(=N)[C@H](Cc1c[nH]cn1)N[*:1])C(=O)[*:2]; pS = N[C@@H](COP(=O)(O)O)C(=O)O; Ile(3ξ) = CCC(C)[C@H](N)C(=O)O
# Tests used:
# [1] = target: T1, HSC70 protein (Bos taurus, UniProt P19120); experiment: Affinity of the peptides for HSC70 protein (BIAcore); format: binding, bovine
# T1 construct: purchased Stressgen
# T1 sequence (P19120 whole entry): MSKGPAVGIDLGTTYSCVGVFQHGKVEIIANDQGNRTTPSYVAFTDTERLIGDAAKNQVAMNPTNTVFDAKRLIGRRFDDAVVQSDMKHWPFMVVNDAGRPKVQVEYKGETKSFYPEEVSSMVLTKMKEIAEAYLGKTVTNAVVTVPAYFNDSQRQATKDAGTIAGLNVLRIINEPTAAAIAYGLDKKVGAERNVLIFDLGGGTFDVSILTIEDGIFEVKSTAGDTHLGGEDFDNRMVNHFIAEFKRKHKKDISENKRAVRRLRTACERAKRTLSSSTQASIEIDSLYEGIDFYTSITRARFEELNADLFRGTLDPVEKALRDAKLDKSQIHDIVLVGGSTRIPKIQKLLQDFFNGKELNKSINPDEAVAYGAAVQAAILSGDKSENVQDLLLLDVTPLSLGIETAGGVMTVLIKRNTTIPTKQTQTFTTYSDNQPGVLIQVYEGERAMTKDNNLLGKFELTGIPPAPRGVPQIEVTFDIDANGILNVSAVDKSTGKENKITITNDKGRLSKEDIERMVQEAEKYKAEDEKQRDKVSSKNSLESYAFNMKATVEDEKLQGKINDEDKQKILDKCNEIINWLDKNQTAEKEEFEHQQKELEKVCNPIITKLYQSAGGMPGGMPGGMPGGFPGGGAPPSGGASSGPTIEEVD
# Description: BIAcore 3000 system (Biacore AB) was used to evaluate the binding of P140 peptides to HSC70 protein (Page et al., 2009, and 2011). Sensor chip CMS, surfactant P20, amine coupling kit containing N-hydroxysuccinimide (NHS) and N-ethyl-N′-dimethylaminopropyl carbodiimide (EDC), 2-(2-pyridinyldithio)ethaneamine (PDEA) and ethanolamine were from Biacore AB. Biosensor assays were performed with HBS-EP buffer as running buffer (10 mM HEPES, 150 mM NaCl, 3 mM EDTA, 0.005% surfactant P20, pH 7.4). The compounds were diluted in the running buffer. The sensor chip surface was regenerated after each experiment by injecting 10 μL of 10 mM HCl. Recombinant bovine HSC70 (Stressgen) was immobilized on flow cells of a CM5 sensor chip through its thiol groups using 35 μL PDEA in 50 mM borate buffer, pH 8.3 on the NHS/EDC-activated matrix. Then, 35 μL of HSC70 (100 μg/mL in formate buffer, pH 4.3) were injected until a response of 13,000 response units (RU) corresponding to 13 ng/mm^2 of HSC70 was immobilized. Twenty μL of a 50 mM cysteine/1 M NaCl solution was used to saturate unoccupied sites on the chip. The direct binding measurement of P140 peptides to HSC70 was carried out at 25° C. with a constant flow rate of 20 μL/min. P140 peptide and analogues were injected in the flux at different concentrations for 3 min, followed by a dissociation phase of 3 min. The kinetic parameters were calculated using the BIAeval 3.1 software on a personal computer. Analysis was performed using the simple 1:1 Langmuir binding model. The specific binding profiles were obtained after subtracting the response signal from the control empty channel and from blank-buffer injection. The fitting to each model was judged by the χ^2 value and randomness of residue distribution compared to the theoretical model.
# [2] = tested on: Balb/c mice; experiment: 31-day HDM-induced asthma model, airway response to methacholine (Flexivent); format: in vivo, mouse; conditions: for Crs / Ers / Rrs: individual mice
# Description: The aim of this study was to evaluate the effect of the P140 phosphopeptide administered systemically (intravenously) in a 31-day model of HDM-induced asthma in mice. The P140 phosphopeptide was solubilized in sterile water (Braun) and 10× concentrate sterile saline was added to adjust osmolarity to 300 mosm. Osmolarity was controlled with a micro osmometer (Löser, type 15) and validated (303 mosm). The P140 phosphopeptide was used in vivo at the dose of 4 mg/kg by intravenous (i.v.) routes. Control animals received equivalent volumes (2 ml/kg) of saline (Table 8).
# Nine-week-old male Balb/c mice were sensitized by intranasal (i.n.) administration of HDM extract (Stallergenes): 1 μg in 25 μl saline on days 0, 1, 2, 3, 4, and 10 μg on days 14 and 21. Mice were challenged by i.n. administration of HDM (1 μg) and/or saline on days 28, 29 and 30. Mice were treated by i.v. injection (2 ml/kg) of P140 or solvent on day 25 (see FIG. 14).
# Airway response to Methacholine (Flexivent®). On day 31, airway responses to PBS then methacholine were assessed using a forced oscillation technique (Flexivent®, SCIREQ, Montreal, Canada) as described (Daubeuf et al, Bioprotocol, 645, 2013). Mice were anesthetized with an intraperitoneal injection of xylasine (Rompun®; 1 mg/kg), followed fifteen minutes later by an intraperitoneal injection of pentobarbital sodium (3.64 mg/Kg). The trachea was exposed and an 18-gauge metal needle was inserted into the trachea. Airways were connected to a computer-controlled small animal ventilator, and quasi-sinusoidally ventilated with a tidal volume of 10 ml/Kg at a frequency of 150 breaths/min and a positive end-expiratory pressure of 2 cm H2O to achieve a mean respiratory volume close to that of spontaneous breathing. After baseline measurement, each mouse was challenged for 10 sec with an aerosol of PBS generated with an in-line nebulizer and administered directly through the ventilator. Then, aerosolized methacholine (MCh) at 50 mg/ml was administered for 10 sec. The effect of methacholine was calculated as the peak response, i.e. the mean of the three maximal values integrated for calculation of airway resistance (R, cm H20·s·mL^−1), elastance (E, cm H20·mL^−1) and compliance (C, mL·cm H20^−1).
# All mice were sensitized to HDM on days 0, 1, 2, 3, 4, 14, 21, and challenged either with saline ([…]) or HDM (challenge with allergen). Results are presented as means±SEM. Differences between groups were tested for statistical significance using Student's t test for inflammatory cells and a two-way ANOVA followed by Bonferroni post-test for airway responses.
# [3] = tested on: peripheral T cells from lupus patients; conditions: cited from earlier work
# [4] = BIAcore, 25° C., 1:1 Langmuir model, global fit
# [5] = HDM-challenged (HDM + P140), first of two unheaded values (presumably PBS)
# [6] = HDM-challenged (HDM + P140), second of two unheaded values (presumably MCh 50 mg/mL)
# [7] = chronic asthma (saline-challenged), methacholine 50 mg/ml, P140 i.v. 4 mg/kg day 25
# [8] = saline-challenged (chronic asthma), first of two unheaded values (presumably PBS)
# [9] = saline-challenged (chronic asthma), second of two unheaded values (presumably MCh 50 mg/mL)
structure (smiles),measurement,setting,value
CCC(C)[C@H](NC(=O)[C@H](Cc1ccccc1)NC(=O)[C@H](C)NC(=O)[C@H](Cc1ccc(O)cc1)NC(=O)CNC(=O)[C@H](CCCNC(=N)N)NC(=O)[C@@H]1CCCN1C(=O)[C@H](CCCCN)NC(=O)CNC(=O)[C@H](COP(=O)(O)O)NC(=O)[C@H](CCCNC(=N)N)NC(=O)[C@H](CCCCN)NC(=O)[C@H](CO)NC(=O)[C@H](Cc1ccc(O)cc1)NC(=O)[C@@H](NC(=O)[C@H](CCSC)NC(=N)[C@H](Cc1c[nH]cn1)NC(=O)[C@@H](NC(=O)[C@@H](N)CCCNC(=N)N)C(C)CC)C(C)C)C(=O)N[C@@H](CCC(=O)O)C(=O)N[C@@H](Cc1ccc(O)cc1)C(=O)O (some centres unmarked) [Compound P140] (H-R[Ile(3ξ)][X1]VYSKR[pS]GKPRGYAF[Ile(3ξ)]EY-OH),Rmax,"[1]; BIAcore, 25° C., 1:1 Langmuir model",83.3 RU
same,KA,[1]; [4],144000 M⁻¹
same,kd,[1]; [4],0.00312 s⁻¹
same,kon,"[1]; BIAcore, 25° C., 1:1 Langmuir model, global fit, read-out: ka",450 M⁻¹ s⁻¹
same,RI,[1]; peptide 1.56 μM,12.1 RU
same,Req,[1]; peptide 1.56 μM,15.3 RU
same,kobs,[1]; peptide 1.56 μM,0.00382 s⁻¹
same,RI,[1]; peptide 3.12 μM,20.9 RU
same,Req,[1]; peptide 3.12 μM,25.8 RU
same,kobs,[1]; peptide 3.12 μM,0.00452 s⁻¹
same,RI,[1]; peptide 6.25 μM,33.8 RU
same,Req,[1]; peptide 6.25 μM,39.5 RU
same,kobs,[1]; peptide 6.25 μM,0.00593 s⁻¹
same,RI,[1]; peptide 12.5 μM,62.5 RU
same,Req,[1]; peptide 12.5 μM,53.6 RU
same,kobs,[1]; peptide 12.5 μM,0.00874 s⁻¹
same,RI,[1]; peptide 25 μM,118 RU
same,Req,[1]; peptide 25 μM,65.2 RU
same,kobs,[1]; peptide 25 μM,0.0144 s⁻¹
same,Crs,[2]; [5],0.0554 mL/cmH2O and 0.0514 mL/cmH2O and 0.0528 mL/cmH2O and 0.0566 mL/cmH2O and 0.0492 mL/cmH2O and 0.0458 mL/cmH2O and 0.0552 mL/cmH2O and 0.0589 mL/cmH2O
same,Ers,[2]; [5],18.0582 cmH2O/mL and 19.4433 cmH2O/mL and 18.9515 cmH2O/mL and 17.6781 cmH2O/mL and 20.3326 cmH2O/mL and 21.8367 cmH2O/mL and 18.1106 cmH2O/mL and 16.9723 cmH2O/mL
same,Rrs,[2]; [5],0.6405 cmH2O · s/mL and 0.6092 cmH2O · s/mL and 0.7972 cmH2O · s/mL and 0.5185 cmH2O · s/mL and 0.6804 cmH2O · s/mL and 0.6365 cmH2O · s/mL and 0.4744 cmH2O · s/mL and 0.5456 cmH2O · s/mL
same,Crs,[2]; [6],0.0146 mL/cmH2O and 0.0075 mL/cmH2O and 0.0062 mL/cmH2O and 0.0065 mL/cmH2O and 0.0101 mL/cmH2O and 0.0060 mL/cmH2O and 0.0138 mL/cmH2O and 0.0081 mL/cmH2O
same,Ers,[2]; [6],79.8018 cmH2O/mL and 148.4985 cmH2O/mL and 188.1151 cmH2O/mL and 219.9720 cmH2O/mL and 125.7688 cmH2O/mL and 173.4582 cmH2O/mL and 72.6033 cmH2O/mL and 131.8035 cmH2O/mL
same,Rrs,[2]; [6],5.6421 cmH2O · s/mL and 10.3886 cmH2O · s/mL and 11.9654 cmH2O · s/mL and 10.5419 cmH2O · s/mL and 8.8810 cmH2O · s/mL and 13.0087 cmH2O · s/mL and 7.0705 cmH2O · s/mL and 9.7688 cmH2O · s/mL
same,"Airway resistance, elastance or compliance","[2]; allergen (HDM)-challenged mice, vs solvent group",no effect
same,"Airway compliance, change vs solvent group",[2]; [7],+115%
same,"Elastance, change vs solvent group",[2]; [7],−65%
same,"Airway resistance, change vs solvent group","[2]; chronic asthma (saline-challenged), methacholine 50 mg/ml, P140 i.v. 4 mg/kg day 25, non-significant",−42%
same,Crs,[2]; [8],0.0545 mL/cmH2O and 0.0498 mL/cmH2O and 0.0569 mL/cmH2O and 0.0541 mL/cmH2O and 0.0650 mL/cmH2O
same,Ers,[2]; [8],18.3671 cmH2O/mL and 20.0811 cmH2O/mL and 17.5777 cmH2O/mL and 18.4893 cmH2O/mL and 15.3975 cmH2O/mL
same,Rrs,[2]; [8],0.5590 cmH2O · s/mL and 0.8945 cmH2O · s/mL and 0.5926 cmH2O · s/mL and 0.8074 cmH2O · s/mL and 0.4418 cmH2O · s/mL
same,Crs,[2]; [9],0.0304 mL/cmH2O and 0.0132 mL/cmH2O and 0.0380 mL/cmH2O and 0.0238 mL/cmH2O and 0.0370 mL/cmH2O
same,Ers,[2]; [9],33.3720 cmH2O/mL and 84.9688 cmH2O/mL and 26.3200 cmH2O/mL and 42.4174 cmH2O/mL and 28.6047 cmH2O/mL
same,Rrs,[2]; [9],4.1067 cmH2O · s/mL and 9.4002 cmH2O · s/mL and 2.2229 cmH2O · s/mL and 4.0926 cmH2O · s/mL and 2.1844 cmH2O · s/mL
same,"Baseline airway resistance, elastance and compliance after PBS inhalation","[2]; saline-challenged mice, P140 i.v. 4 mg/kg day 25, vs solvent-treated mice",no effect on any parameter
same,Proliferation of peripheral T cells from lupus patients,"[3]; ex vivo (Monneaux et al., 2005)",does not induce proliferation
same,Secretion of regulatory cytokine IL-10 in cell cultures,"[3]; ex vivo, T cells from lupus patients (Monneaux et al., 2005)",high levels
